Assay results: patent US7576135B2, “Diamine derivatives” (Daiichi Pharmaceutical Co., Ltd., priority 2002, dated 2009)
Where a name gives a salt, the structure may show the parent alone.

System: not given
Test: not given
Details: not given
Compound CN1CCc2nc(C(=O)N[C@@H]3CCS(=O)(=O)C[C@H]3NC(=O)c3cc4cc(F)ccc4[nH]3)sc2C1 (relative stereo) (as salt: hydrochloride) [Example 183, N-((3R*,4R*)-3-{[(5-Fluoroindol-2-yl)carbonyl]amino}-1,1-dioxohexahydro-1-thiopyran-4-yl)-5-methyl-4,5,6,7-tetrahydrothiazolo[5,4-c]pyridine-2-carboxamide hydrochloride] has a melting point of 244 to 249 °C.
In the case of CN1CCc2nc(C(=O)N[C@@H]3C[C@@H](C(=O)N(C)C)CC[C@@H]3NC(=S)C(=O)Nc3ccc(F)cn3)sc2C1 (hydrate or solvate), the melting point is reported as 176 to 179 °C (dec.).

Molecular target: T1, human FXa (Homo sapiens, UniProt P00742)
T1 construct: purchased Enzyme Research Labolatories, Inc
T1 sequence (P00742 235-488 limits assumed): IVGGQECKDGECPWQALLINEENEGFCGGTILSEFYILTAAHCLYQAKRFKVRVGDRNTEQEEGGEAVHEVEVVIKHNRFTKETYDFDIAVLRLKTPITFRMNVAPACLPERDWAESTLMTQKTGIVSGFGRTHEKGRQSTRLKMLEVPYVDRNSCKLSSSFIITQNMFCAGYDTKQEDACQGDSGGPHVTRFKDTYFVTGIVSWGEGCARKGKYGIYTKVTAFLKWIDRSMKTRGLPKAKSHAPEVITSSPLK
T1 sequence (P00742 41-179 partner limits assumed): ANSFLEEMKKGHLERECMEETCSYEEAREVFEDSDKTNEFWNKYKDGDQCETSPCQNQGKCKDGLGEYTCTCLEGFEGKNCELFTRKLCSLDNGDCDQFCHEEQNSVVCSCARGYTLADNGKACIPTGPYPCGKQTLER
Test: Determination of human FXa-inhibiting effect (IC50 value), chromogenic substrate S-2222
Format: biochemical
Details: substrate S-2222, absorbance at 405 nm, room temperature
Description: Determination of Human FXa-Inhibiting Effect (IC50 Value):
As a control, Tris buffer was used in place of the test compound.
In the case of C#Cc1ccc(NC(=O)C(=O)N[C@H]2CC[C@H](c3nnc(C)o3)C[C@H]2NC(=O)c2nc3c(s2)CN(C)CC3)nc1 [Ex. 402, N^1-(5-ethynylpyridin-2-yl)-N^2-((1S,2R,4S)-4-(5-methyl-1,3,4-oxadiazol-2-yl)-2-{[(5-methyl-4,5,6,7-tetrahydrothiazolo[5,4-c]pyridin-2-yl)carbonyl]amino}cyclohexyl)ethanediamide], the IC50 is reported as 1.1 nM.
Cc1nnc([C@H]2CC[C@H](NC(=O)C(=O)Nc3ccc(Br)cn3)[C@H](NC(=O)c3nc4c(s3)CN(C)CC4)C2)o1 [Ex. 396, N^1-(5-bromo-2-pyridinyl)-N^2-((1S,2R,4S)-4-(5-methyl-1,3,4-oxadiazol-2-yl)-2-{[(5-methyl-4,5,6,7-tetrahydrothiazolo[5,4-c]pyridin-2-yl)carbonyl]amino}cyclohexyl)ethanediamide hydrochloride] gave an IC50 of 1.1 nM.
CN1CCc2nc(C(=O)N[C@@H]3C[C@@H](c4nnco4)CC[C@@H]3NC(=O)C(=O)Nc3ccc(Cl)cn3)sc2C1 [Ex. 385, N^1-(5-chloropyridin-2-yl)-N^2-[(1S,2R,4S)-2-{[(5-methyl-4,5,6,7-tetrahydrothiazolo[5,4-c]pyridin-2-yl)carbonyl]amino}-4-(1,3,4-oxadiazol-2-yl)cyclohexyl]ethanediamide] showed an IC50 of 1.3 nM.
Cc1nnc([C@H]2CC[C@H](NC(=O)C(=O)Nc3ccc(Cl)cn3)[C@H](NC(=O)c3nc4c(s3)CN(C)CC4)C2)o1 [Ex. 384, N^1-(5-chloropyridin-2-yl)-N^2-[(1S,2R,4S)-2-{[(5-methyl-4,5,6,7-tetrahydrothiazolo[5,4-c]pyridin-2-yl)carbonyl]amino}-4-(5-methyl-1,3,4-oxadiazol-2-yl)cyclohexyl]ethanediamide hydrochloride] showed an IC50 of 1 nM.
CN1CCc2nc(C(=O)N[C@@H]3C[C@@H](n4cnnc4)CC[C@@H]3NC(=O)C(=O)Nc3ccc(Cl)cn3)sc2C1 [Ex. 394, N^1-(5-chloropyridin-2-yl)-N^2-(1S,2R,4S)-2-{[(5-methyl-4,5,6,7-tetrahydrothiazolo[5,4-c]pyridin-2-yl)carbonyl]amino}-4-(4H-1,2,4-triazol-4-yl)cyclohexyl)ethanediamide hydrochloride] showed an IC50 of 1.1 nM.
With CN1CCc2nc(C(=O)N[C@@H]3C[C@@H](n4cccc4)CC[C@@H]3NC(=O)C(=O)Nc3ccc(Cl)cn3)sc2C1 [Ex. 413, N^1-(5-chloropyridin-2-yl)-N^2-[(1S,2R,4S)-2-{[(5-methyl-4,5,6,7-tetrahydrothiazolo[5,4-c]pyridin-2-yl)carbonyl]amino}-4-(1H-pyrrol-1-yl)cyclohexyl]ethanediamide hydrochloride] the IC50 was 1 nM.
Work on Cc1nnc([C@H]2CC[C@H](NC(=O)C(=O)Nc3ccc(Cl)s3)[C@H](NC(=O)c3nc4c(s3)CN(C)CC4)C2)o1 [Ex. 395, N^1-(5-chloro-2-thienyl)-N^2-((1S,2R,4S)-4-(5-methyl-1,3,4-oxadiazol-2-yl)-2-{[(5-methyl-4,5,6,7-tetrahydrothiazolo[5,4-c]pyridin-2-yl)carbonyl]amino}cyclohexyl)ethanediamide citric acid salt] yielded an IC50 of 0.72 nM.
